The source made the active and inactive calls. The rule behind the calls is not given here.
Legend:
Mus musculus [1] = species: Mus musculus; assay: Compound was tested for antitumor activity against L1210 in mice; Active; format: functional, organism-based
L1210 = assay: Antitumor activity against L1210 in mice, after ip administration at 30 mg/kg for 5 consecutive days, expressed as average % of life time in 6 mice, treated mice/control; format: functional, Mus musculus; details: route intraperitoneal
Mus musculus [2] = species: Mus musculus; assay: Compound was tested for antitumor activity against L1210 in mice; Inactive; format: functional, organism-based

Q: Which “Activity Score” value (Mus musculus [1]) does the source give for `CO[C@@H]1[C@@H](O)[C@H]([n+]2ccc3c(C)c4[nH]c5ccc(O)cc5c4c(C)c3c2)OC[C@@H]1O.[Br-]` here?
A: The value was “Active”.

Q: What about the T/C (L1210) of the same compound?
A: Its T/C is 169%.

Q: Which results are given for `CO[C@@H]1[C@@H](O)[C@@H](O)CO[C@H]1[n+]1ccc2c(C)c3[nH]c4ccc(O)cc4c3c(C)c2c1.[Br-]`?
A: Activity Score (Mus musculus [2]): inactive; T/C (L1210): 123%

Q: Which results are given for `CO[C@H]1CO[C@@H]([n+]2ccc3c(C)c4[nH]c5ccc(O)cc5c4c(C)c3c2)[C@H](O)[C@H]1O.[Br-]`?
A: Activity Score (Mus musculus [1]): Active; T/C (L1210): 167%

Q: For `Cc1c2cc[n+]([C@@H]3OC[C@H](O)[C@H](O)[C@H]3O)cc2c(C)c2c1[nH]c1ccc(O)cc12.[Br-]`, which “Activity Score” value (Mus musculus [1]) is on record?
A: The value was “Active”.

Q: What about the T/C (L1210) of the same compound?
A: The T/C was >960%.

— ChEMBL document CHEMBL1129092, “Structure-activity relationship study on N-glycosyl moieties through model building of DNA and ellipticine N-glycoside complex” (1996)
